Data published in patent publication US11760785B2, “Glucose transporter inhibitor-modified insulin for glucose-responsive insulin delivery” (NORTH CAROLINA STATE UNIVERSITY, priority 2017, dated 2023).

Experiments:
[1] = system: glucose transporter (GLUT) on erythrocyte ghosts; assay: binding to erythrocyte ghosts as the model of glucose transporter
Source text: In order to conjugate GLUT inhibitors to […], the GLUT inhibitors were first functionalized with an amino group to facilitate their conjugation to insulin (FIGS. 2 and 3). […] For inhibitor 2 (In2), an amino group was introduced through Michael addition reaction while maintaining the main structures unchanged. In order to conjugate insulin to forskolin and inhibitor 2, insulin was firstly reacted with Traut's reagent to introduce a thiol group and used directly for conjugating inhibitors, which was also beforehand reacted with SMCC crosslinker.

[2] = system: type 1 diabetic mouse model induced by STZ; assay: in vivo therapeutic efficacy, blood glucose levels in type 1 diabetic mice; conditions: STZ type 1 diabetic mice; 300 IU/kg insulin conjugate, 150 IU/kg free insulin
Source text: PBS was used as a control. The dose was set to 300 IU/kg for insulin conjugate and 150 IU/kg for free insulin to avoid severe hypoglycemia. Error bars represent the S.D. of three independent experiments (n=3).
(§1) PBS was used as a control.

[3] = format: physicochemical
Source text: Herein, a new strategy utilizing the in situ living cells as the carrier for insulin was developed. […] In addition, the introduction of water-insoluble inhibitors onto insulin can greatly reduce its water solubility at pH 7.4. After subcutaneously injected, insulin conjugate formed a depot beneath the skin, which can slowly release insulin conjugate into the blood. Then, insulin conjugate reaches the GLUT on living cells, including adipose cells, muscle cells and blood cells, during blood circulation and consequently establishing an insulin pool. Of note, the GLUT pool on living cells can also buffer the high level of insulin in blood in the initial period post-injection and works as the reservoir of insulin to smooth the level of blood insulin. The adsorption of insulin-conjugate to cell membranes is in a dynamic balance with insulin conjugate in interstitial fluid and blood under a normoglycemic state. The insulin conjugate binding on living cell membranes can be released in a glucose-triggered manner under a hyperglycemic state because of the competitive binding from elevated glucose level.
In order to conjugate GLUT inhibitors to […], the GLUT inhibitors were first functionalized with an amino group to facilitate their conjugation to insulin (FIGS. 2 and 3). For forskolin, the introduction of the amino group and alkyl chains can enhance its binding affinity to GLUT. […]

[4] = system: diabetic mice; assay: multiple intraperitoneal glucose tolerance test; format: in vivo, mouse; conditions: subcutaneous injection, 400 IU/kg insulin conjugate
Source text: Insulin-F was subcutaneously injected. The dose was set to 400 IU/kg for insulin conjugate. Error bars represent the S.D. of three independent experiments (n=5).
as §1

[5] = system: diabetic mice; conditions: mouse, in vivo, sc
Experimental: The in vivo therapeutic efficacy of insulin conjugates was evaluated in type 1 diabetic mouse model induced by STZ. The diabetic mice were assigned to four groups treated with insulin conjugates or native insulin. PBS was used as a control.

C=C1[C@@H](C)[C@H]2[C@H](Cc3ccccc3)NC(=O)[C@]23OC(=O)/C=C/[C@H](O)CCC[C@@H](C)C/C=C/[C@H]3[C@@H]1O [cytochalasin B, reference compound]
inhibition of insulin-F binding on erythrocyte ghosts ([1]; competitor against insulin-F binding, indicates the binding is GLUT specific): could be inhibited

insulin [free insulin]
time blood glucose level maintained within the normal range (<200 mg/dL) [2]: three

insulin-forskolin: insulin conjugated via Traut's reagent thiol and SMCC crosslinker to amino-functionalized forskolin, a GLUT inhibitor
solubility at pH 7.4 [3]: insoluble
binding to erythrocyte ghost membrane ([1]; erythrocyte ghosts as the model of glucose transporter): able to bind to membrane
blood-glucose-regulating ability in multiple glucose tolerance test [4]: long-lasting blood-glucose-regulating ability
long-lasting behavior by living imaging [5]: long-lasting behavior of insulin-F was further confirmed
